For five molecules, IC50 and Km results are on record in paper PMC8117066 (Behavioural brain research, 2021).

Where a chain is given by its changes, count along the chain named. In names and notes the source's numbering stands.

In series [1] the target is Dopamine transporter (DAT) (Mus musculus, UniProt Q61327, T53A). Briefly: inhibition of [3H]DA uptake in mouse striatal synaptosomes. Type of series: biochemical.
Series [2] concerns the target Dopamine transporter (DAT) (Mus musculus, UniProt Q61327). The description is as above. The class given is biochemical.
Substrate in series [3]: NCCc1ccc(O)c(O)c1
The series is described as follows: [3H]DA uptake kinetics. The class given is biochemical, Mus musculus.

Sequence of Dopamine transporter (DAT) (Mus musculus, UniProt Q61327, T53A) (Q61327 whole entry T53A): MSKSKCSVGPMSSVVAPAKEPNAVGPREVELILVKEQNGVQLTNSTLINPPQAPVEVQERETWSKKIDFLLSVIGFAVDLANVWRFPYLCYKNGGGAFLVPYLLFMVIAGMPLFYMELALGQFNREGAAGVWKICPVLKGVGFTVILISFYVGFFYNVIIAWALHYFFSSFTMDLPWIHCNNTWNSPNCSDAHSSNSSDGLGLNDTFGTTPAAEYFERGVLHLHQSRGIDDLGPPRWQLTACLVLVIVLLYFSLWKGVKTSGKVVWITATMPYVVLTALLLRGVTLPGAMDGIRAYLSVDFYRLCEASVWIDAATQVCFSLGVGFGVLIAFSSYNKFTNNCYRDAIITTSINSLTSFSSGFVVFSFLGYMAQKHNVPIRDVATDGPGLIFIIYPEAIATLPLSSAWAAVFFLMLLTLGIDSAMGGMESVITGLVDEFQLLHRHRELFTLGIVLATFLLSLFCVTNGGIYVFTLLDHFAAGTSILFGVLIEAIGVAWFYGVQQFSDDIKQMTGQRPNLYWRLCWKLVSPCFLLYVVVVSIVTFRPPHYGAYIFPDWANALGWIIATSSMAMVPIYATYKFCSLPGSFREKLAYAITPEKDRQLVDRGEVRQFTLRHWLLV

The IC50 is the concentration at which inhibition is half-maximal. A low value points to greater potency in that assay. Consider `CN[C@@H](C)Cc1ccccc1` [METH], for which the values for the IC50 in series [1] and in series [2] were 262 ± 25 nM and 280 ± 40 nM, respectively. Take `CC(N)Cc1ccccc1` (centres unmarked) [amphetamine]: the IC50 in series [1] was found to be 198 ± 68 nM; in series [2], 183 ± 23 nM.

For `COC(=O)[C@H]1[C@@H](OC(=O)c2ccccc2)C[C@@H]2CC[C@H]1N2C` [cocaine], the IC50 worked out at 1270 ± 348 nM in series [1] and 268 ± 58 nM in series [2].

B1: Dopamine transporter (DAT) (Mus musculus) (protein)
chain: MSKSKCSVGPMSSVVAPAKEPNAVGPREVELILVKEQNGVQLTNSTLINPPQTPVEVQERETWSKKIDFLLSVIGFAVDLANVWRFPYLCYKNGGGAFLVPYLLFMVIAGMPLFYMELALGQFNREGAAGVWKICPVLKGVGFTVILISFYVGFFYNVIIAWALHYFFSSFTMDLPWIHCNNTWNSPNCSDAHSSNSSDGLGLNDTFGTTPAAEYFERGVLHLHQSRGIDDLGPPRWQLTACLVLVIVLLYFSLWKGVKTSGKVVWITATMPYVVLTALLLRGVTLPGAMDGIRAYLSVDFYRLCEASVWIDAATQVCFSLGVGFGVLIAFSSYNKFTNNCYRDAIITTSINSLTSFSSGFVVFSFLGYMAQKHNVPIRDVATDGPGLIFIIYPEAIATLPLSSAWAAVFFLMLLTLGIDSAMGGMESVITGLVDEFQLLHRHRELFTLGIVLATFLLSLFCVTNGGIYVFTLLDHFAAGTSILFGVLIEAIGVAWFYGVQQFSDDIKQMTGQRPNLYWRLCWKLVSPCFLLYVVVVSIVTFRPPHYGAYIFPDWANALGWIIATSSMAMVPIYATYKFCSLPGSFREKLAYAITPEKDRQLVDRGEVRQFTLRHWLLV
The term Km denotes the concentration of substrate that gives half-maximal velocity. Regarding B1, the Km in series [3] stood at 0.0778 ± 0.003009 µM.

B2: Dopamine transporter (DAT) (Mus musculus; T53A) (protein)
chain: B1 chain with T53A
With B2, the Km in series [3] is 0.07117 ± 0.006766 µM.
